From patent US20140004243A1, “SALTY TASTE ENHANCER” (AJINOMOTO CO., INC., priority 2011, published 2014)

Biological target: T1, Human ENaC δ, β and γ subunit (Homo sapiens, UniProt P51168+P51170+P51172)
T1 construct: expressed in transfected cells; host or cells: Xenopus laevis (African clawed frog) oocytes injected with cRNA
T1 sequence (P51172 1-802): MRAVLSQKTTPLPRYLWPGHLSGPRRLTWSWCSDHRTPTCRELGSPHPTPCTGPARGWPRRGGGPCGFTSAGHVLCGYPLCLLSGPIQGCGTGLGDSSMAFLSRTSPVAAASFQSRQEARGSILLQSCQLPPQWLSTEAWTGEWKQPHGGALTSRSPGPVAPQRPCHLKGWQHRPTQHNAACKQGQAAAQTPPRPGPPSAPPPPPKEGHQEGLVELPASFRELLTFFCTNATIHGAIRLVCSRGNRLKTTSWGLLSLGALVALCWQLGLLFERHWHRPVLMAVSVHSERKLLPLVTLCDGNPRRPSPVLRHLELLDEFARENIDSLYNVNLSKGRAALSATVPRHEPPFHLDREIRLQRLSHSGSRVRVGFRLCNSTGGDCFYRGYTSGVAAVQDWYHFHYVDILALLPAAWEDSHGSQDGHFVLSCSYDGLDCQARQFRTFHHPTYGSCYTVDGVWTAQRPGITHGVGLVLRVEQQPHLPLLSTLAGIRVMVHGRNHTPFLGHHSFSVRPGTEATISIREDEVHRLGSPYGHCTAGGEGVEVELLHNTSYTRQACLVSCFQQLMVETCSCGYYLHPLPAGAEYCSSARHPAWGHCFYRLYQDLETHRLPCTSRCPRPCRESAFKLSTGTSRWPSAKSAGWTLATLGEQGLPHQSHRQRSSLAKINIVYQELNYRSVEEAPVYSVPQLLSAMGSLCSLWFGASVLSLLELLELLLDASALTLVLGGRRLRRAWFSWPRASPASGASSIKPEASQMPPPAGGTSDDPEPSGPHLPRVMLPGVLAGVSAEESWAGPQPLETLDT
T1 sequence (P51168 1-640): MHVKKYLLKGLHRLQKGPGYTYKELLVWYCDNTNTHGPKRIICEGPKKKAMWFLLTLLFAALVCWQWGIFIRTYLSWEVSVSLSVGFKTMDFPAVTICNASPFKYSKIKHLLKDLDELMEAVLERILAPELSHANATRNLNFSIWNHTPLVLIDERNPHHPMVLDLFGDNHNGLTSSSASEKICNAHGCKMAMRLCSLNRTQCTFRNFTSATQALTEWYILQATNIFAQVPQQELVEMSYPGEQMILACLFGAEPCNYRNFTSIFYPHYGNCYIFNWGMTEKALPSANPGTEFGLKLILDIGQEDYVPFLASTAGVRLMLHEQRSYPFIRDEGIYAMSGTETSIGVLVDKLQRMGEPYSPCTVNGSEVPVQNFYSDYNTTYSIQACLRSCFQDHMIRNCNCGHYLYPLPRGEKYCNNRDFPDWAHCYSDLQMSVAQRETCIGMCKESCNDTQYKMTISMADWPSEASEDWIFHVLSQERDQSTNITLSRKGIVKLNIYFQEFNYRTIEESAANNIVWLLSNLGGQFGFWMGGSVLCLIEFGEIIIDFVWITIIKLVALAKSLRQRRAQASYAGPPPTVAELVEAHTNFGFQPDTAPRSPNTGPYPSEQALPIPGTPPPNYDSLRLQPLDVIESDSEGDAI
T1 sequence (P51170 1-649): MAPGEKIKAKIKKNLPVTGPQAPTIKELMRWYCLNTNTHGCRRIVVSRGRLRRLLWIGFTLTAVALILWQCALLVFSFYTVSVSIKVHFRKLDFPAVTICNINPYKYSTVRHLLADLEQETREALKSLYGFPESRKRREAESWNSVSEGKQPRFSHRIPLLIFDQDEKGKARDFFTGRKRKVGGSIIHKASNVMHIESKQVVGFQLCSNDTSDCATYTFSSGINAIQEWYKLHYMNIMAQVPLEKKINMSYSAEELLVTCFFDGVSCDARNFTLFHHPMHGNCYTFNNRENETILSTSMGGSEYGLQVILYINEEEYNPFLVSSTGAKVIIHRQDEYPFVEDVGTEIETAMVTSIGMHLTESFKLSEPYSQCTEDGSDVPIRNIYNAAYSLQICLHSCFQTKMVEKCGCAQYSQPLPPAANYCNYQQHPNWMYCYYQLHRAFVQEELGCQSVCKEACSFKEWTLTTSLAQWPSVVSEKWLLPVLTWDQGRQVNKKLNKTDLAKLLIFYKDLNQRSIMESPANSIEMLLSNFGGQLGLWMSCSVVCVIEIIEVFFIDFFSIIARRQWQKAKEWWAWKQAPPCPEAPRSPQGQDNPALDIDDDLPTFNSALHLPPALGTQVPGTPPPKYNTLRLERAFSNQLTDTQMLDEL
Test: Measurement of ENaC activation potency (MED) in ENaC-expressing oocyte, Two Electrode Voltage Clamp
Assay type: cell-based
Conditions: minimum effective dose at which current started to increase; ENaC-expressing African clawed frog oocyte; smaller MED = higher ENaC activation potency
In short: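 Xenopus oocytes injected with human ENaC δ, β and γ cRNA, cultured 16–72 hr, voltage-clamped 30 mV below resting potential in ND96 (pH 7.6) by two-electrode voltage clamp. Compounds (0.1 nM–300 μM) perfused at rising concentrations every 3 min. MED = lowest dose raising current ≥10%, or raising 5 μM capsazepine-evoked current ≥25%, whichever smaller.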

Row | MED | SMILES
1 | 0.3 µM | OC[C@@H](NC(=S)NCCc1ccccc1)c1ccccc1 [Example 51]
2 | 3 µM | Oc1cc2c(cc1O)CN(C(=S)NCCc1ccc(Cl)cc1)CCC2 [capsazepine]
3 | 0.3 µM | C[C@@H](NC(=S)NCCc1ccccc1)c1ccccc1 [Example 11]
